Results published in paper PMC12223310, “Mining the heparinome for cryptic antimicrobial peptides that selectively kill Gram-negative bacteria” (Molecular Systems Biology, 2025).
Values after ≈ are worked out from the molar mass of the structure shown. Read-outs that look alike come from different tables or passages of the source. Ends that are not written are not given here.

Legend:
Escherichia coli = type: cell-based, Escherichia coli BW25113
Method: (§1) Antimicrobial activities were determined by the microtiter broth dilution method recommended by the National Committee of Laboratory Safety and Standards (NCLSS), adapted for AMPs (Wiegand et al, [2008]). Briefly, overnight bacterial cell cultures were brought to an exponential growth state (OD600 = 0.4) in MH broth and diluted to a final concentration of 5 × 10^5 CFU/mL. In all, 1:2 peptide serial dilutions were prepared in 96-well polypropylene plates (Greiner, Frickenhausen, Germany), in MH medium containing 0.2% (w/v) of bovine serum albumin (BSA) and 0.02% glacial acetic acid. […] The lowest concentration with no colonies was taken as MBC. The results are the average of three independent studies.

Staphylococcus aureus = type: cell-based, Staphylococcus aureus ATCC 12600
Method: as §1

Listeria monocytogenes = type: cell-based, Listeria monocytogenes ATCC 19112
Method: as §1

[1] = test system: Pseudomonas sp (Pseudomonas aeruginosa); type: cell-based, Pseudomonas aeruginosa ATCC 15915
Method: as §1

in vitro = type: cell-based; settings: human, MRC-5 cells
Method: (§2) Toxicity in MRC-5 and HepG2 cells was tested by the MTT assay, as described (Bello-Madruga et al, [2023]). Cell lines were maintained in Eagle’s minimum essential medium (MEMα) supplemented with 10% fetal bovine serum (FBS). Cells were cultured in 75-cm^2 flasks and then transferred to polystyrene 96-well plates, at 3 × 10^4 cells per well, and incubated overnight for attachment to the well surface. Then culture media was removed and 1:2 peptide serial dilutions in MEMα were added to each well and later incubated for 4 h. After incubation, peptides were removed and 100 μL of 0.5 mg/mL MTT staining solution in MEMα supplemented with 10% FBS was added to cells and incubated for 1.5 h at 37 °C. Formazan crystals in living cells were detected after disruption with 200 μL dimethyl sulfoxide and then absorbance was measured at 570 nm in a Tecan Spark instrument (Tecan, Männedorf, Switzerland). The results are the average of three independent studies.

Acinetobacter baumannii = type: cell-based, Acinetobacter baumannii ATCC 15308
Method: as §1

Cytotoxicity, MTT assay = type: cell-based; settings: human, HepG2 cells, 4 h peptide incubation in MEMα, average of three studies, read-out: LC50 (HepG2 cells)
Method: as §2

Enterococcus faecium = type: cell-based, Enterococcus faecium ATCC 19434
Method: as §1

P. aeruginosa 827632 = type: cell-based
Method: as §1

P. aeruginosa 827651 = type: cell-based
Method: as §1

E. coli 1166795 = type: cell-based
Method: as §1

A. baumannii 3878 = type: cell-based
Method: as §1

A. baumannii 3880 = type: cell-based
Method: as §1

E. coli CFT073 = type: cell-based
Method: as §1

horse erythrocytes = type: cell-based
Method: Peptide toxicity was tested on horse erythrocytes (Sandín et al, [2021]). Horse defibrinated blood was washed three times in phosphate buffer saline (PBS) pH 7.2 by centrifugation at 3× 3000 rpm for 10 min, to remove excess hemoglobin in the supernatant and then diluted tenfold in PBS. Next, 50 μL of erythrocytes were added to a 1.5 mL polypropylene tube and incubated with 50 μL of a 1:2 peptide serial dilution in PBS. An erythrocyte disruption (ED) control was prepared by adding 50 μL of 0.1% TritonX-100 in PBS instead of the peptides and an intact erythrocyte (IC) control by adding 50 μL of PBS alone. All samples and controls were incubated for 2 h at 37 °C. Samples were centrifuged at 3000 rpm for 3 min, and the supernatants were transferred to a polystyrene 96-well plate and inspected for ED by reading the absorbance at 540 nm in a Tecan Spark instrument (Tecan, Männedorf, Switzerland). The results are the average of three independent studies. The hemolysis percentage was calculated as: Hemolysis%=Sample−IC/ED−IC×100

Compound | MBC S. aureus (Staphylococcus aureus) | MIC S. aureus (Staphylococcus aureus) | MBC L. monocytogenes (Listeria monocytogenes) | MIC L. monocytogenes (Listeria monocytogenes) | MBC Pseudomonas sp [1] | MIC Pseudomonas sp [1] | MBC A. baumannii (Acinetobacter baumannii) | MIC A. baumannii (Acinetobacter baumannii) | CC50 at 4 h (Cytotoxicity, MTT assay) | MBC E. faecium (Enterococcus faecium) | MIC E. faecium (Enterococcus faecium) | MBC E. coli (Escherichia coli) | MIC E. coli (Escherichia coli) | MBC P. aeruginosa 827632 (P. aeruginosa 827632) | MIC P. aeruginosa 827632 (P. aeruginosa 827632) | MBC P. aeruginosa 827651 (P. aeruginosa 827651) | MIC P. aeruginosa 827651 (P. aeruginosa 827651) | MBC E. coli 1166795 (E. coli 1166795) | MIC E. coli 1166795 (E. coli 1166795) | CC50 at 4 h (in vitro) | also measured
CC[C@H](C)[C@H](NC(=O)[C@H](CCCCN)NC(=O)[C@H](CCC(=O)O)NC(=O)[C@H](CCCCN)NC(=O)[C@H](CO)NC(=O)[C@H](CCCCN)NC(=O)[C@H](CCCNC(=N)N)NC(=O)[C@H](Cc1ccccc1)NC(=O)[C@H](Cc1ccccc1)NC(=O)[C@H](CC(=O)O)NC(=O)CNC(=O)[C@H](CC(C)C)NC(=O)[C@@H](N)CC(C)C)C(=O)NCC(=O)N[C@@H](CCCCN)C(=O)N[C@@H](CCC(=O)O)C(=O)N[C@@H](Cc1ccccc1)C(=O)N[C@@H](CCCCN)C(=O)N[C@@H](CCCNC(=N)N)C(=O)N[C@H](C(=O)N[C@H](C(=O)N[C@@H](CCC(N)=O)C(=O)N[C@@H](CCCNC(=N)N)C(=O)N[C@H](C(=O)N[C@@H](CCCCN)C(=O)N[C@@H](CC(=O)O)C(=O)N[C@@H](Cc1ccccc1)C(=O)N[C@@H](CC(C)C)C(=O)N[C@@H](CCCNC(=N)N)C(=O)N[C@@H](CC(N)=O)C(=O)N[C@@H](CC(C)C)C(=O)N[C@H](C(=O)N1CCC[C@H]1C(=O)N[C@@H](CCCNC(=N)N)C(=O)N[C@H](C(=O)N[C@@H](CCC(=O)O)C(=O)N[C@@H](CO)C(N)=O)[C@@H](C)O)C(C)C)[C@@H](C)CC)C(C)C)[C@@H](C)CC [LL-37, reference compound] | 25 µM (≈ 112 µg/mL) | 25 µM (≈ 112 µg/mL) | 3.1 µM (≈ 13.9 µg/mL) | 0.8 µM (≈ 3.59 µg/mL) | 0.8 µM (≈ 3.59 µg/mL) | 0.8 µM (≈ 3.59 µg/mL) | 6.3 µM (≈ 28.3 µg/mL) | 6.3 µM (≈ 28.3 µg/mL) | 53 µM | 3.1 µM (≈ 13.9 µg/mL) | 0.8 µM (≈ 3.59 µg/mL) | – | – | – | – | – | – | – | – | – | MBC E. coli (Escherichia coli; MIC wells plated on LB agar, overnight 37 °C, no colonies, average of three studies): 3.1 µM (≈ 13.9 µg/mL); MIC E. coli (Escherichia coli; microtiter broth dilution, MH broth, 5 × 10^5 CFU/mL, overnight 37 °C, average of three studies): 1.6 µM (≈ 7.19 µg/mL); CC50 at 4 h (in vitro; MTT, 4 h peptide incubation in MEMα, average of three studies, read-out: LC50 (MRC-5 cells)): 26 µM
FRFKRKLPKYLLF-NH2 [HBP-3] | 50 µM | 25 µM | 12.5 µM | 6.3 µM | 6.3 µM | 6.3 µM | 0.8 µM | 0.8 µM | > 200 µM | >100/ > 100 µM | >100/ > 100 µM | 3.1 µM | 3.1 µM | 25 µM | 25 µM | 12.5 µM | 12.5 µM | 1.6 µM | 1.6 µM | > 200 µM | MBC A. baumannii 3878 (A. baumannii 3878): 6.3 µM; MIC A. baumannii 3878 (A. baumannii 3878): 6.3 µM; MBC A. baumannii 3880 (A. baumannii 3880): 6.3 µM; MIC A. baumannii 3880 (A. baumannii 3880): 6.3 µM; MBC E. coli CFT073 (E. coli CFT073): 25 µM; MIC E. coli CFT073 (E. coli CFT073): 12.5 µM
GWKDKKSYRWFLQHRPQVGYIRVRFY-NH2 [HBP-4] | 12.5 µM | 3.1 µM | 3.1 µM | 1.6 µM | 0.8 µM | 0.8 µM | 0.8 µM | 0.8 µM | 38 µM | 50 µM | 12.5 µM | 0.2 µM | 0.2 µM | 6.3 µM | 6.3 µM | 6.3 µM | 3.1 µM | < 0.1 µM | < 0.1 µM | 35 µM | MBC A. baumannii 3878 (A. baumannii 3878): 0.8 µM; MIC A. baumannii 3878 (A. baumannii 3878): 0.8 µM; MBC A. baumannii 3880 (A. baumannii 3880): 1.6 µM; MIC A. baumannii 3880 (A. baumannii 3880): 1.6 µM; MBC E. coli CFT073 (E. coli CFT073): 1.6 µM; MIC E. coli CFT073 (E. coli CFT073): 0.8 µM
HNLFRKLTAALFRANFGYTLRSV-NH2 [ΔCPC’] | – | 6.3 µM | – | 3.1 µM | – | 1.6 µM | – | 1.6 µM | – | – | – | – | 1.6 µM | – | – | – | – | – | – | – | –
HNLFRKLTHQLFRRNFGYTLRSV-NH2 [Peptide R10] | – | 6.3 µM | – | 1.6 µM | – | 0.8 µM | – | 0.4 µM | – | – | – | – | 0.4 µM | – | – | – | – | – | – | – | –
HNLFRKLTHRLFRQNFGYTLRSV-NH2 [Peptide R14] | – | 6.3 µM | – | 3.1 µM | – | 0.4 µM | – | 0.4 µM | – | – | – | – | 0.4 µM | – | – | – | – | – | – | – | –
HNLFRKLTHRLFRRNFGYTL-NH2 [HBP-5 [1–20]] | – | 6.3 µM | – | 1.6 µM | – | 0.4 µM | – | 0.4 µM | – | – | – | – | 0.4 µM | – | – | – | – | – | – | 63 ± 1 µM | Hemolysis (250 µM peptide) (horse erythrocytes): 24 ± 2
RFYLSKKKWVMVP-NH2 [HBP-2] | >100/ > 100 µM | >100/ > 100 µM | > 100 µM | 37.5 µM | 50 µM | 25 µM | 50 µM | 50 µM | > 200 µM | >100/ > 100 µM | >100/ > 100 µM | 25 µM | 12.5 µM | > 100 µM | > 100 µM | > 100 µM | > 100 µM | 12.5 µM | 12.5 µM | > 200 µM | MBC A. baumannii 3878 (A. baumannii 3878): 50 µM; MIC A. baumannii 3878 (A. baumannii 3878): 50 µM; MBC A. baumannii 3880 (A. baumannii 3880): > 50 µM; MIC A. baumannii 3880 (A. baumannii 3880): > 50 µM; MBC E. coli CFT073 (E. coli CFT073): 100 µM; MIC E. coli CFT073 (E. coli CFT073): 50 µM
RWHLTHRPKTGYIRVLVH-NH2 [HBP-1] | > 100 µM | 50 µM | 12.5 µM | 6.3 µM | 3.1 µM | 3.1 µM | 1.6 µM | 1.6 µM | > 200 µM | ≥100/ > 100 µM | ≥100/ > 100 µM | 1.6 µM | 1.6 µM | 25 µM | 25 µM | 50 µM | 25 µM | 1.6 µM | 1.6 µM | > 200 µM | MBC A. baumannii 3878 (A. baumannii 3878): 1.6 µM; MIC A. baumannii 3878 (A. baumannii 3878): 1.6 µM; MBC A. baumannii 3880 (A. baumannii 3880): 12.5 µM; MIC A. baumannii 3880 (A. baumannii 3880): 12.5 µM; MBC E. coli CFT073 (E. coli CFT073): 3.1 µM; MIC E. coli CFT073 (E. coli CFT073): 3.1 µM
